{"source": "patent US7196105B2", "about": "“Treatment of human multiple myeloma by curcumin” (Research Development Foundation, priority 2002, dated 2007)", "key": {"[1]": {"test_system": "multiple myeloma cell lines MM.1S, RPMI-8226 and U266", "details": "50 μM PS-1145; cited from earlier work"}, "[2]": {"test_system": "U266 cells", "assay": "Cytotoxic effect of vincristine with or without curcumin (MTT)", "format": "cell-based, human", "details": "vincristine 50 μM alone, 24 h", "protocol": "The antiproliferative effects of curcumin against different multiple myeloma cell lines were determined by the MTT dye uptake method as described earlier (Manna et al., 1998). Briefly, cells (5000/well) were incubated in triplicate in a 96-well plate in the presence or absence of indicated test samples in a final volume of 0.1 ml for 24 h at 37° C. Thereafter, 0.025 ml of MTT solution (5 mg/ml in PBS) was added to each well. After a 2 h incubation at 37 ° C., 0.1 ml of extraction buffer (20% SDS, 50% dimethylformamide) was added. Incubation was continued for overnight at 37 ° C., and then the OD at 590 nm was measured using a 96-well multiscanner autoreader (Dynatech MR 5000), with extraction buffer as blank. Percent cell viability=(OD of the experiment samples/OD of the control)×100."}, "[3]": {"test_system": "p65 subunit of NF-κB", "assay": "Immunocytochemistry for NF-κB p65 localization in multiple myeloma cell lines", "format": "cell-based, human", "details": "U266 cells, NBD-peptide 100 μM, 12 h", "protocol": "Red stain indicates the localization of p65 and blue stain (Hoechst) indicates nucleus (magnification 200×). […] U266 cells (2×10^6 cells/ml) were treated with indicated concentrations of NEMO-control or NBD-peptide (100 μM) for the indicated times. Nuclear extracts were then checked for the presence of NF-κB DNA-binding activity by EMSA. […] Untreated or NBD-peptide-treated (100 μM; 12 h) U266 cells were cytospun, and p65 immunocytochemistry was performed as described. Red stain indicates the localization of p65 and blue stain indicates nucleus (magnification 200×). […] U266 cells (2×10^6 cells/ml) were treated with indicated concentrations of NEMO-control or NBD-peptide (100 μM) for the indicated time periods, and cell viability was monitored by the trypan blue dye exclusion method. Percent cell killing was determined as: (number of trypan blue stained cells/total cells)×100. […] Stained slides were mounted with mounting medium (Sigma Colo.) and analyzed under an epifluorescence microscope (Labophot-2, Nikon, Tokyo, Japan). […] Cells with nuclear staining of NF-κB p65 or STAT3 were counted separately. One hundred cells were counted for each specimen, and the sample was graded on the basis of a 4-point scale: −, no nuclear positive cells (0%); +, low number of nuclear positive cells (<10%); ++, moderate number of nuclear positive cells (10–50%); +++, high number of nuclear positive cells (>50%)."}, "[4]": {"test_system": "U266 cells", "assay": "Cell viability by trypan blue dye exclusion after NBD peptide treatment", "format": "cell-based, human", "details": "NBD peptide 100 μM, 24 h", "protocol": "FIG. 8A: U266 cells (2×10^6 cells/ml) were treated with indicated concentrations of NEMO-control or NBD-peptide (100 μM) for the indicated times. Nuclear extracts were then checked for the presence of NF-κB DNA-binding activity by EMSA. FIG. 8B: Untreated or NBD-peptide-treated (100 μM; 12 h) U266 cells were cytospun, and p65 immunocytochemistry was performed as described. Red stain indicates the localization of p65 and blue stain indicates nucleus (magnification 200×). FIG. 8C: U266 cells (2×10^6 cells/ml) were treated with indicated concentrations of NEMO-control or NBD-peptide (100 μM) for the indicated time periods, and cell viability was monitored by the trypan blue dye exclusion method. Percent cell killing was determined as: (number of trypan blue stained cells/total cells)×100."}}, "data": [{"compound": "O=C(Nc1cc(Cl)cc2c1[nH]c1cnccc12)c1cccnc1", "note": "[PS-1145]", "values": [{"measurement": "inhibition of proliferation", "setting": "[1]", "value": "less than 50%"}]}, {"compound": "CC[C@]1(O)C[C@H]2CN(CCc3c([nH]c4ccccc34)[C@@](C(=O)OC)(c3cc4c(cc3OC)N(C=O)[C@H]3[C@@](O)(C(=O)OC)[C@H](OC(C)=O)[C@]5(CC)C=CCN6CC[C@]43[C@@H]65)C2)C1", "note": "[vincristine, reference compound]", "values": [{"measurement": "killing of U266 cells", "setting": "[2]", "value": "minimally effective"}]}, {"compound": "NH2-DRQIKIWFQNRRMKWKKTALDWSWLQTE-CONH2 (H-DRQIKIWFQNRRMKWKKTALDWSWLQTE-NH2) [NBD peptide, reference compound]", "values": [{"measurement": "nuclear pool of the p65 subunit of NF-κB", "setting": "[3]", "value": "decrease in the nuclear pool of the p65 subunit of NF-κB"}, {"measurement": "suppression of cell growth", "setting": "[4]", "value": "Approximately 32%"}]}]}
